Test results taken from patent publication US20250073165A1, “OLANZAPINE, COMPOSITIONS THEREOF AND METHODS OF USE THEREOF” (Teva Pharmaceuticals International GmbH, priority 2022, published 2025).

Tests used:
[1] = Particle size distribution (PSD) by laser diffraction, Malvern Mastersizer 2000; assay type: physicochemical
Description: (§1) For the purposes herein, particle size distribution (PSD) is determined as the percent volume, i.e. D(90) and D(3,2) and was measured by laser diffraction using a Malvern Mastersizer 2000 equipped with a Hydro 2000 S dispersion unit.
(§2) The measurements were performed in saturated water dispersion medium (refractive index=[…] (general purpose)). The water was saturated with olanzapine to prevent dissolution of the sample while measuring. Dispersion medium was prepared by adding about 3 gm olanzapine to 1 liter water, sonicating in an ultrasound bath for 30 min and filtering (0.22-0.45 μm). The samples were added as concentrated suspension under stirring until an obscuration rate of 10-20% was reached. The results were values arising from ten measurement cycles with a recirculation time (after sonification) of 30 sec.
(§3) Sample preparation: Samples were prepared as concentrated suspensions. About 50-100 mg of the olanzapine sample was added with a spatula to a small sized glass beaker and several drops of saturated water dispersion medium was added. A paste was obtained by mild mixing, and an additional quantity (1 ml) of saturated water dispersion medium was added in order to obtain a concentrated homogeneous suspension.

[2] = Bulk/tapped density, Ph. Eur. 2.9.34 Method 1, ERWEKA SVM 122; assay type: physicochemical; conditions: Table 1
Description: Bulk density/tapped density were determined by European Pharmacopoeia 2.9.34. Method 1 (https://www.drugfuture.com/Pharmacopoeia/EP7/DATA/20934E.PDF; PDF downloaded Nov. 14, 2021).
The bulk and tapped densities were determined using the Tapped Density Tester SVM 122 from ERWEKA, equipped with a 100 mL glass cylinder. Approximately 30 g of the powder was carefully poured into the 100 mL measuring cylinder with a funnel. Bulk density was calculated by dividing the amount of powder (in gram) by the measured volume (mL). The tapped density was then determined as follows:
If the difference between V500 and V1250 was bigger than 2 mL, taps were repeated: i.e. tapped another 1250× and repeated until difference was below 2 mL. • Bulk density=sample weight/volume before tapping. • Tapped density=weight/volume after tapping. • Calculation: […]

[3] = PSD of bulk API compared to PSD of API in vial after dry heat sterilization; assay type: physicochemical; conditions: for D(3,2) / D(90): Table 3, bulk API or API in vial after dry heat sterilization 150-160° C., two hours, per sample name
Description: as §1, §2, §3
Closed and crimped vials filled with API were terminally sterilized at 150-160° C. using dry heat for two hours in dry heat oven SP-470 by Kambič (Slovenia). Additional methods of terminal sterilization include radiation including for example, gamma radiation, X-ray, electron beam and the like with similar results. Alternatively, the API may be prepared aseptically
The manufacturing process for the final drug product includes a terminal sterilization step, and specifically the quality of the bulk API should not be affected by sterilization. Therefore, after the dry heat sterilization, samples of API in vials filled with two batches (with low PSD) were analyzed for PSD and compared to starting API material.

[4] = Flow function by FT4 Powder Rheometer, shear test 9 kPa; assay type: physicochemical; conditions: 9 kPa shear test, 1 ml cell
Description: The flow function (FF) was determined by using FT4 Powder Rheometer, Freeman FT4 instrument, and standard Freeman shear test −9 kPa (using small cell 1 ml), according to the procedure below: • Compact to 9 kPa for 60 s • Pre shear hold 7 kPa for 16 s • Shear test at 7 kPa (Shear at 18°/min for 10°, auto detected peak torque yes) • Pre shear hold 6 kPa for 16 s • Shear test at 6 kPa (Shear at 18°/min for 10°, auto detected peak torque yes) • Pre shear hold 5 kPa for 16 s • Shear test at 5 kPa (Shear at 18°/min for 10°, auto detected peak torque yes) • Pre shear hold 4 kPa for 16 s • Shear test at 4 kPa (Shear at 18°/min for 10°, auto detected peak torque yes) • Pre shear hold 3 kPa for 16 s • Shear test at 3 kPa (Shear at 18°/min for 10°, auto detected peak torque yes)

[5] = background statement; cited from earlier work
[6] = Table 4, listed as Olanzapine M6-020
[7] = Table 4, listed as Olanzapine S1-220
[8] = Table 4, listed as Olanzapine S3-020
[9] = Table 4, listed as Olanzapine M1-010
[10] = Table 4, listed as Olanzapine S1-920
[11] = Table 4, listed as Olanzapine S2-920
[12] = Table 4, listed as Olanzapine M7-121
[13] = Table 4, listed as Olanzapine S3-221

Structure (SMILES)	D(3,2) ([1]; Table 1, bulk API batch)	D(90) ([1]; Table 1, bulk API batch)	TD (tapped density) [2]	D(3,2) [3]	D(90) [3]	Flow function [4]	further results
Cc1cc2c(s1)Nc1ccccc1N=C2N1CCN(C)CC1 [Batch M6-020, 2-methyl-4-(4-methyl-1-piperazinyl)-10H-thieno[2,3-b][1,5]benzodiazepine]	6.6 μm	24 μm	0.41 g/mL	6.5 μm	24 μm	2.0	D(90) [1, 6]: 24 μm; D(100) [1, 6]: 205 μm
Cc1cc2c(s1)Nc1ccccc1N=C2N1CCN(C)CC1 [Batch S1-220, 2-methyl-4-(4-methyl-1-piperazinyl)-10H-thieno[2,3-b][1,5]benzodiazepine]	6.1 μm	26 μm	0.39 g/mL	5.8 μm	29 μm	1.5	D(90) [1, 7]: 29 μm; D(100) [1, 7]: 142 μm
Cc1cc2c(s1)Nc1ccccc1N=C2N1CCN(C)CC1 [Batch S3-020, 2-methyl-4-(4-methyl-1-piperazinyl)-10H-thieno[2,3-b][1,5]benzodiazepine]	5.4 μm	17 μm	0.28 g/mL	5.2 μm	16 μm	1.3	D(90) [1, 8]: 16 μm; D(100) [1, 8]: 90 μm; PSD curves before and after sterilization ([3]; FIG. 4B): highly similar
Cc1cc2c(s1)Nc1ccccc1N=C2N1CCN(C)CC1 [Batch M1-010, 2-methyl-4-(4-methyl-1-piperazinyl)-10H-thieno[2,3-b][1,5]benzodiazepine]	4.2 μm	13 μm	0.37 g/mL	4.7 μm	14 μm	1.4	D(90) [1, 9]: 14 μm; D(100) [1, 9]: 42 μm
Cc1cc2c(s1)Nc1ccccc1N=C2N1CCN(C)CC1 [Olanzapine S4-221, 2-methyl-4-(4-methyl-1-piperazinyl)-10H-thieno[2,3-b][1,5]benzodiazepine]							D(90) ([1]; Table 4): 26 μm; D(100) ([1]; Table 4): 110 μm
Cc1cc2c(s1)Nc1ccccc1N=C2N1CCN(C)CC1 [Batch M2-121, 2-methyl-4-(4-methyl-1-piperazinyl)-10H-thieno[2,3-b][1,5]benzodiazepine]	6.4 μm	30 μm	0.39 g/mL	7.5 μm	40 μm	1.5	
Cc1cc2c(s1)Nc1ccccc1N=C2N1CCN(C)CC1 [Batch S1-920, 2-methyl-4-(4-methyl-1-piperazinyl)-10H-thieno[2,3-b][1,5]benzodiazepine]	4.1 μm	11 μm	0.29 g/mL	3.9 μm	11 μm	1.2	D(90) [1, 10]: 11 μm; D(100) [1, 10]: 21 μm
Cc1cc2c(s1)Nc1ccccc1N=C2N1CCN(C)CC1 [Olanzapine S2-121, 2-methyl-4-(4-methyl-1-piperazinyl)-10H-thieno[2,3-b][1,5]benzodiazepine]							D(90) ([1]; Table 4): 27 μm; D(100) ([1]; Table 4): 196 μm
Cc1cc2c(s1)Nc1ccccc1N=C2N1CCN(C)CC1 [Olanzapine, 2-methyl-4-(4-methyl-1-piperazinyl)-10H-thieno[2,3-b][1,5]benzodiazepine]							Water solubility [5]: poor
Cc1cc2c(s1)Nc1ccccc1N=C2N1CCN(C)CC1 [Batch S2-920, 2-methyl-4-(4-methyl-1-piperazinyl)-10H-thieno[2,3-b][1,5]benzodiazepine]	7.6 μm	38 μm	0.45 g/mL			2.0	D(90) [1, 11]: 38 μm; D(100) [1, 11]: 136 μm
Cc1cc2c(s1)Nc1ccccc1N=C2N1CCN(C)CC1 [Batch M7-121, 2-methyl-4-(4-methyl-1-piperazinyl)-10H-thieno[2,3-b][1,5]benzodiazepine]	8.3 μm	42 μm	0.50 g/mL			2.1	D(90) [1, 12]: 40 μm; D(100) [1, 12]: 205 μm
Cc1cc2c(s1)Nc1ccccc1N=C2N1CCN(C)CC1 [Batch S3-221, 2-methyl-4-(4-methyl-1-piperazinyl)-10H-thieno[2,3-b][1,5]benzodiazepine]	6.4 μm	26 μm	0.40 g/mL			1.8	D(90) [1, 13]: 24 μm; D(100) [1, 13]: 61 μm
